Assay results taken from patent publication US20260091050A1, “ADVANTAGEOUS ANTI-HCV COMBINATION THERAPY” (Atea Pharmaceuticals, Inc., priority 2021, published 2026).
Several values for one entry are separate records, joined by “and”; a condition that tells them apart may be missing. Identical values can stand only once. Like-named read-outs stand apart in the source and are kept apart here.

Tests used:
[1] = Ambient stability (25 ± 2° C./60 ± 5% RH) of Compound 1-A over 9 months; type: physicochemical
Description: Three conditions were tested: accelerated stability (40±2° C./[…]) over a 6-month time period, ambient stability (25±2° C./[…]) over a 9-month period, and stability under refrigerator conditions (5±3° C.) over a 9-month time period. The results for accelerated stability, ambient stability, and refrigerator conditions are shown in Table 23, Table 24, and Table 25, respectively.

[2] = Plasma levels of Compound 1 and metabolites after single oral dose of Compound 1-A, dog; type: in vivo
[3] = Plasma levels of Compound 1 and metabolites after single oral dose of Compound 1-A, monkey; type: in vivo; details: for Compound 1 Tmax: Monkey, plasma
[4] = Heart and liver tissue levels of active triphosphate 4 hours after oral Compound 1-A, rat; type: in vivo; details: 4 hours after single oral dose
Description: (§1) High levels of the active TP were measured in the liver of all species tested.

[5] = Heart and liver tissue levels of active triphosphate 4 hours after oral Compound 1-A, monkey; type: in vivo; details: 4 hours after single oral dose
Description: as §1

[6] = Head-to-head comparison of Compound 1 and Compound 1-A in dogs: plasma levels; type: in vivo; details: dog plasma
Description: A head-to-head comparison of dogs dosed with Compound 1 and Compound 1-A was conducted.

GT1 HCV = assay: Single ascending dose study of Compound 1-A in GT1-HCV infected patients (Part B); type: in vivo, human; details: for Mean Max Reduction of HCV RNA from baseline: GT1b HCV patients
Description: Subjects in Part B received a single dose of Compound 1-A in the fasting state. Patients were confined to the clinic from Day −1 to Day 6.
Part B was initiated after the safety (through Day 5) and plasma pharmacokinetic (through 24 h) data review from Cohort 3a in Part A. Available safety data (through Day 5) and pharmacokinetic data (through 24 h) was reviewed for the first cohort in Part B (Cohort 1b) before enrolling subsequent Part B cohorts. Subsequent Part B cohorts were only dosed following review of available safety and pharmacokinetic data from the respective doses in Part A as well as available safety (through Day 5) from the prior Part B cohorts.
Patients infected with HCV were treatment-naïve, non-cirrhotic GT1-infected subjects with a viral load of ≥5 log10 IU/mL.
Baseline was defined as the mean of Day −1 and Day 1 (pre-dose). […] The mean maximum HCV RNA reduction 24 hours post-dose following a single 300 mg dose was 1.7 log10 IU/mL and this compares to a −2 log 10 IU/mL reduction after 1 day of 400 mg of sofosbuvir monotherapy in GT1a HCV-infected subjects. The mean maximum HCV RNA reduction 24 hours post-dose following a single 100 mg dose was 0.8 log10 IU/mL. The mean 10 maximum HCV RNA reduction was 2.2 log10 IU/mL following a single 400 mg dose.

GT3 HCV = assay: 600 mg QD for 7 days in non-cirrhotic GT3 HCV-infected patients (Part D); type: in vivo, human
Description: Doses were administered as the Compound 1-A salt base. The free base Compound 1 equivalent is often given in parenthesis.
Part C was a randomized, double-blind, placebo-controlled MAD study divided into three cohorts. […] The dose escalation only proceeded following satisfactory review of the data.
(§2) HCV-infected patients were treatment-naïve with HCV RNA ≥5 log 10 IU/mL. HCV RNA was quantified using COBAS® AmpliPrep TaqMAN® v2.0 with LLQ of 15 IU/mL. Plasma drug levels were measured using LC-MS/MS. […] Mean ages of enrolled subjects were 44, 39, and 56 years in the non-cirrhotic GT1b 600 mg dose cohort, non-cirrhotic GT3 cohort, and the cirrhotic cohort, respectively.

GT1, GT2, or GT3 HCV = assay: 600 mg QD for 7 days in Child-Pugh A cirrhotic patients with GT1, GT2 or GT3 HCV (Part E); type: in vivo, human; details: for Mean Max Reduction / Mean Reduction After 24 hours / HCV RNA < LOQ (15 IU/mL): 600 mg of Compound 1-A; for HCV RNA < LOQ (15 IU/mL): subjects/total
Description: Doses were administered as the Compound 1-A salt base. The free base Compound 1 equivalent is often given in parenthesis. […]
as §2

HCV = details: cited from earlier work; for viral load reduction, individual: cirrhotic
[7] = 25 ± 2° C./60 ± 5% RH, 1st month
[8] = 25 ± 2° C./60 ± 5% RH, 3rd month
[9] = 25 ± 2° C./60 ± 5% RH, 6th month
[10] = 25 ± 2° C./60 ± 5% RH, 9th month
[11] = Dog, 30 mg/kg single oral dose, plasma
[12] = 600 mg of Compound 1-A, GT3, non-cirrhotic (n = 6)

CNc1nc(N)nc2c1ncn2[C@@H]1O[C@H](CO[P@@](=O)(N[C@@H](C)C(=O)OC(C)C)Oc2ccccc2)[C@@H](O)[C@@]1(C)F [Compound 1-A, isopropyl ((S)-(((2R,3R,4R,5R)-5-(2-amino-6-(methylamino)-9H-purin-9-yl)-4-fluoro-3-hydroxy-4-methyltetrahydrofuran-2-yl)methoxy) (phenoxy)phosphoryl)-L-alaninate hemisulfate]
Appearance ([1]; 25 ± 2° C./60 ± 5% RH, 0 month): White
Assay ([1]; 25 ± 2° C./60 ± 5% RH, 0 month): 98.8%
IR ([1]; 25 ± 2° C./60 ± 5% RH, 0 month): correspond
Related Substance 1 Any other single impurity ([1]; 25 ± 2° C./60 ± 5% RH, 0 month): 0.01%
Related Substance 1 Total Impurities ([1]; 25 ± 2° C./60 ± 5% RH, 0 month): 0.01%
Water ([1]; 25 ± 2° C./60 ± 5% RH, 0 month): 0.45%
Appearance [1, 7]: White
Assay [1, 7]: 101.1%
Related Substance 1 Any other single impurity [1, 7]: 0.01%
Related Substance 1 Total Impurities [1, 7]: 0.02%
Water [1, 7]: 0.19%
Appearance [1, 8]: White
Assay [1, 8]: 99.6%
IR [1, 8]: correspond
Related Substance 1 Any other single impurity [1, 8]: 0.03%
Related Substance 1 Impurity B [1, 8]: 0.03%
Related Substance 1 Impurity F [1, 8]: 0.02%
Related Substance 1 Total Impurities [1, 8]: 0.11%
Water [1, 8]: 0.29%
Appearance [1, 9]: White solid
Assay [1, 9]: 99.7%
IR [1, 9]: correspond
Related Substance 1 Any other single impurity [1, 9]: 0.02%
Related Substance 1 Impurity F [1, 9]: 0.01%
Related Substance 1 Total Impurities [1, 9]: 0.05%
Water [1, 9]: 0.46%
Appearance [1, 10]: Off-white
Assay [1, 10]: 100.9%
IR [1, 10]: correspond
Related Substance 1 Any other single impurity [1, 10]: 0.02%
Related Substance 1 Total Impurities [1, 10]: 0.02%
Water [1, 10]: 0.20%
percentage of water ([1]; after 9 months): 0.2000
total related substance 1 impurities ([1]; after 9 months): 0.02%
Compound 1 Cmax [2, 11]: 1530 ng/mL
Tmax [2, 11]: 15 to 60 min
Compound 1 Tmax ([2]; Dog, 100 mg/kg single oral dose, plasma): 30 to 60 min
vomiting (animals affected) ([2]; dogs, high dose group): 5/5
Compound 1 Tmax ([3]; 30 mg/kg single oral dose): 30 to 120 min
Compound 1 Tmax ([3]; 100 mg/kg single oral dose): 60 to 120 min
vomiting (animals affected) ([3]; monkeys, high dose group): ⅕
active TP (metabolite 1-6) level in heart [4]: unquantifiable levels
active TP (metabolite 1-6) level in liver [4]: High levels
active TP (metabolite 1-6) level in heart [5]: unquantifiable levels
active TP (metabolite 1-6) level in liver [5]: High levels
AUC(0-4 hr) of metabolite 1-7 compared to dosing with Compound 1 [6]: twice as great
Mean Dose-normalized AUC(0-4 hr) for Compound 1 ([6]; normalized to a dose of 25 mg/kg, 25 mg/kg): 1.0 µM·h
mean maximum HCV RNA reduction (GT1 HCV; 24 hours post-dose, single 100 mg dose): 0.8 log10 IU/mL
mean maximum HCV RNA reduction (GT1 HCV; 24 hours post-dose, single 300 mg dose, GT1b): 1.7 log10 IU/mL
Mean Max Reduction of HCV RNA from baseline (GT1 HCV; single dose, Compound 1-A equivalent of 92 mg Compound 1): 0.8 log10 IU/ml
Mean Max Reduction of HCV RNA from baseline (GT1 HCV; single dose, Compound 1-A equivalent of 275 mg Compound 1): 1.7 log10 IU/ml
Mean Max Reduction of HCV RNA from baseline (GT1 HCV; single dose, Compound 1-A equivalent of 368 mg Compound 1): 2.2 log10 IU/ml
Mean Max Reduction of HCV RNA from baseline (GT1 HCV; single dose, Compound 1-A equivalent of 550 mg Compound 1): 2.3 log10 IU/ml
intensity of adverse effects (GT1 HCV; Part B): mild to moderate
serious adverse events (GT1 HCV; Part B, GT1-HCV infected patients, single dose): No serious adverse events
mean maximum HCV RNA reduction (GT1 HCV; single 400 mg dose): 2.2 log10 IU/mL
individual maximum HCV RNA reductions (GT1 HCV; single 600 mg dose, non-cirrhotic GT1b): 2.1 log10 IU/mL and 2.3 log10 IU/mL and 2.6 log10 IU/mL
mean maximum HCV RNA reduction (GT1 HCV; single 600 mg dose, non-cirrhotic GT1b (n=3)): 2.3 log10 IU/mL
time within which the parent is metabolized (GT1 HCV; single oral dose of Compound 1-A, plasma): ≤ 8 h
mean maximum HCV RNA reduction (GT3 HCV; 600 mg QD for 7 days, non-cirrhotic GT3): 4.6 log10 IU/mL and 4.5 log10 IU/mL
Mean Max Reduction (GT3 HCV; [12]): 4.5 log10 IU/mL
Mean Reduction After 24 hours (GT3 HCV; [12]): 2.4 log10 IU/mL
HCV RNA < LOQ (15 IU/mL) (GT3 HCV; 600 mg of Compound 1-A, GT3, non-cirrhotic (n = 6), subjects/total): 1/6
mean HCV RNA reduction (GT3 HCV; after the first dose of 600 mg, non-cirrhotic GT3): 2.4 log10 IU/mL
mean maximum HCV RNA reduction (GT1, GT2, or GT3 HCV; 600 mg QD for 7 days, CPA cirrhotic): 4.4 log10 IU/mL and 4.6 log10 IU/mL
Mean Max Reduction (GT1, GT2, or GT3 HCV; GT1, Child-Pugh A (n = 3)): 4.2 log10 IU/mL
Mean Reduction After 24 hours (GT1, GT2, or GT3 HCV; GT1, Child-Pugh A (n = 3)): 2.4 log10 IU/mL
HCV RNA < LOQ (15 IU/mL) (GT1, GT2, or GT3 HCV; GT1, Child-Pugh A (n = 3)): 1/3
Mean Max Reduction (GT1, GT2, or GT3 HCV; GT3, Child-Pugh A (n = 1)): 4.8 log10 IU/mL
Mean Reduction After 24 hours (GT1, GT2, or GT3 HCV; GT3, Child-Pugh A (n = 1)): 2.2 log10 IU/mL
HCV RNA < LOQ (15 IU/mL) (GT1, GT2, or GT3 HCV; GT3, Child-Pugh A (n = 1)): 0/1
HCV RNA reduction (GT1, GT2, or GT3 HCV; cirrhotic GT1, within the first 24 hours): 2.4 log10
HCV RNA reduction (GT1, GT2, or GT3 HCV; cirrhotic GT3, within the first 24 hours): 2.2 log10
viral load reduction (HCV; cirrhotic participants): 4.6 log 10 IU/mL
viral load reduction, individual (HCV; GT1b, listed as bemnifosbuvir): 4.0 log 10 IU/mL (2×) and 4.5 log 10 IU/mL
viral load reduction, individual (HCV; GT2): 5.0 log 10 IU/mL
viral load reduction, individual (HCV; GT3, listed as bemnifosbuvir): 4.8 log 10 IU/mL and 5.2 log 10 IU/mL
viral load reduction (HCV; non-cirrhotic participants): 4.5 log 10 IU/mL
